Laboratory results: publication PMC4469915 (Molecules and Cells, 2015)

What was measured:
[1] = molecular target: T1, apoA4 (Homo sapiens, UniProt P06727); experiment: DMPC multilamellar liposome clearance, absorbance at […] nm; type: binding; settings: lipid-free protein; liposomes; protein:DMPC 2:1 mol/mol as printed; 24.5°C
T1 sequence (P06727 21-396): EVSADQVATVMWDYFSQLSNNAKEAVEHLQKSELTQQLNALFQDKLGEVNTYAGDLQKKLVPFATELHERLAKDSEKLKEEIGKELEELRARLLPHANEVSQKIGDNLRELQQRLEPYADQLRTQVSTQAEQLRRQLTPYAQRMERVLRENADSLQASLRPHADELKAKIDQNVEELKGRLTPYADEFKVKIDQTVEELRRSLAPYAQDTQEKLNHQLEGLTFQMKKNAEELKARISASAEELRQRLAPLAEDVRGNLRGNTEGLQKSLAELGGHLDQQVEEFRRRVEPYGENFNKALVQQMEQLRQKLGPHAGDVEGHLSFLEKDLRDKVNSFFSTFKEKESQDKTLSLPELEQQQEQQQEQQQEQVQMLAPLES

[2] = molecular target: apoA-I (Homo sapiens, UniProt P02647); experiment: as above; type: binding; settings: lipid-free protein; liposomes; protein:DMPC 2:1 mol/mol as printed; 24.5°C
apoA-I, sequence (P02647 25-267): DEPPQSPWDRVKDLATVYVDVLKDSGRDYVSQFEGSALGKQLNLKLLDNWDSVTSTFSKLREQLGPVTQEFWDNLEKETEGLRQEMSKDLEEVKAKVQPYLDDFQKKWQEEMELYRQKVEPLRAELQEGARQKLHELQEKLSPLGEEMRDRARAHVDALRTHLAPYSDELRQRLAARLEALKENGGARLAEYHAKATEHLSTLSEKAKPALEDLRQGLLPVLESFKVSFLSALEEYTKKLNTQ

- T1/2 [1]: 62 ± 10 min
- T1/2 [2]: 11 ± 1 min
SMILES: CCCCCCCCCCCCCC(=O)OC[C@H](COP(=O)([O-])OCC[N+](C)(C)C)OC(=O)CCCCCCCCCCCCC [DMPC]
